Data on 35 compounds can be found in ChEMBL document CHEMBL3272060, “Selective inhibition of the monosynaptic spinal reflex by a series of hydroxylated alkylaminoindans” (J Med Chem, 1977).

For orientation: inhibition in vivo means how much of the control response was suppressed. Lower therefore signals a weak effect.

In data set [1] the test system is Felis catus. Put plainly: Inhibition of electrical stimulation-induced polysynaptic spinal reflex response in unanesthetized decerebrated cat spinal cord segment at 5 mg/kg, iv relative to control. Format: functional.
The test system of data set [2] is Felis catus. Put plainly: Toxicity in cat assessed as motor deficit at 2 to 4 mg/kg, iv. The class given is organism-based. Set-up: dose 2-4 mg/kg, route intravenous. The conditions noted are these: in vivo.
The subject of data set [3] is Felis catus. Put plainly: Toxicity in cat assessed as motor deficit at 10 mg/kg, po. As to conditions: in vivo. Set-up: dose 10 mg/kg, route oral. The class given is organism-based.
In data set [4] the test system is Felis catus. Kind of data set: Inhibition of electrical stimulation-induced monosynaptic spinal reflex response in unanesthetized decerebrated cat spinal cord segment at 5 mg/kg, iv relative to control. The class given is functional.
The subject of data set [5] is Felis catus. Kind of data set: Inhibition of electrical stimulation-induced monosynaptic spinal reflex response in unanesthetized decerebrated cat spinal cord segment assessed as duration at 5 mg/kg, iv. Format: functional.
Data set [6] deals with Felis catus. Put plainly: Inhibition of electrical stimulation-induced monosynaptic spinal reflex response in unanesthetized decerebrated cat spinal cord segment assessed as duration at 2 mg/kg, iv. Format: functional.
Data set [7] has as its system Felis catus. Kind of data set: Inhibition of electrical stimulation-induced monosynaptic spinal reflex response in unanesthetized decerebrated cat spinal cord segment assessed as duration at 10 mg/kg, iv. Format: functional.
The test system of data set [8] is Felis catus. Put plainly: Inhibition of electrical stimulation-induced polysynaptic spinal reflex response in unanesthetized decerebrated cat spinal cord segment at 2 mg/kg, iv relative to control. The class given is functional.
The subject of data set [9] is Felis catus. Put plainly: Inhibition of electrical stimulation-induced polysynaptic spinal reflex response in unanesthetized decerebrated cat spinal cord segment at 10 mg/kg, iv relative to control. The class given is functional.
Data set [10] relates to Felis catus. Put plainly: Inhibition of electrical stimulation-induced monosynaptic spinal reflex response in unanesthetized decerebrated cat spinal cord segment at 2 mg/kg, iv relative to control. The class given is functional.
For data set [11], the system named is Felis catus. Put plainly: Inhibition of electrical stimulation-induced monosynaptic spinal reflex response in unanesthetized decerebrated cat spinal cord segment at 10 mg/kg, iv relative to control. Format: functional.
Data set [12] has as its system Felis catus. Kind of data set: Inhibition of electrical stimulation-induced polysynaptic spinal reflex response in unanesthetized decerebrated cat spinal cord segment assessed as duration at 5 mg/kg, iv. The class given is functional.
In data set [13] the test system is Felis catus. Put plainly: Induction of electrical stimulation-induced monosynaptic spinal reflex response in unanesthetized decerebrated cat spinal cord segment at 5 mg/kg, iv relative to control. The class given is functional.
Data set [14] concerns Felis catus. Put plainly: Induction of electrical stimulation-induced monosynaptic spinal reflex response in unanesthetized decerebrated cat spinal cord segment assessed as duration at 5 mg/kg, iv. Format: functional.

`CCCCN(Cc1ccccc1)C1CC2=C(CC(O)CC2)C1.Cl` (stereo not given): the inhibition in vivo at 5 mg/kg in the data set on Felis catus [1] turned out to be 0%; in the data set on Felis catus [4], 20%. Also, the Activity entry in the data set on Felis catus [2] and in the data set with Felis catus [3] was “Non-toxic” throughout. Also, the Time in the data set on Felis catus [5] worked out at 1 h.
As to `OC1CCC2=C(C1)CC(NC1CCCCC1)C2` (stereo not given), the inhibition in vivo at 5 mg/kg in the data set with Felis catus [1] and in the data set on Felis catus [4] was 0% each time.
As to `CC(=O)O[C@H]1CC2=C(CC(N(C)C)C2)C[C@H]1OC(C)=O.Cc1ccc(S(=O)(=O)O)cc1` (stereo not given in full), the inhibition in vivo at 5 mg/kg in the data set on Felis catus [1] and with Felis catus [4] was 0% in each case. The Activity entry in the data set on Felis catus [2] and in the data set on Felis catus [3] was “Non-toxic” each time. For the same compound, the Time in the data set with Felis catus [5] amounted to 1 h.
Take `OC1CC=C(CCN2CCCCC2)CC1O` (stereo not given): the inhibition in vivo at 5 mg/kg with Felis catus [1] and in the data set on Felis catus [4] was 0% throughout.
With `O[C@@H]1CC2=C(CC(N3CCCCC3)C2)C[C@@H]1O` (stereo not given in full), the inhibition in vivo at 5 mg/kg in the data set with Felis catus [1] and in the data set with Felis catus [4] was 0% each time. Further, the Activity result in the data set on Felis catus [2] and with Felis catus [3] was “Non-toxic” throughout. Moreover, the Time with Felis catus [5] was below 0.25 h.
With `OC1CCC2=C(C1)CC(N1CCCCC1)C2` (mixture of isomers; 5), the Time in the data set on Felis catus [6] was 1 h; in the data set on Felis catus [7], above 2 h. In the data set on Felis catus [8], this compound returned an inhibition in vivo at 2 mg/kg of 0%. Also, the inhibition in vivo at 10 mg/kg is 0% in the data set with Felis catus [9] and above 80% in the data set on Felis catus [11]. Besides, the Activity entry with Felis catus [2] and in the data set on Felis catus [3] was “Non-toxic” each time. For the same compound, in the data set with Felis catus [10], the “inhibition (INH)” value is above 80%.
`OC1CCC2=C(C1)CC(N1CCCCC1)C2` (stereo in doubt; 7): in the data set with Felis catus [6], the Time was above 2 h.
As for `CC(=O)O[C@H]1CC2=C(CC(N(C)C)C2)C[C@@H]1OC(C)=O` (relative stereo), the inhibition in vivo at 5 mg/kg with Felis catus [1] and with Felis catus [4] was 0% in each case.
Take `CC(=O)O[C@H]1CC2=C(C[C@@H]1OC(C)=O)CN(C)C2`: the inhibition in vivo at 5 mg/kg in the data set on Felis catus [1] and in the data set on Felis catus [4] was 0% throughout.
`OC1CCC2=C(C1)CN(C1CCCCC1)C2` (stereo not given): the inhibition in vivo at 5 mg/kg in the data set with Felis catus [1] and in the data set on Felis catus [4] was 0% in each case. For the same compound, the Activity result in the data set with Felis catus [2] and with Felis catus [3] was “Non-toxic” each time. Also, in the data set on Felis catus [5], the Time is below 0.25 h.
On to `COc1cc(C(=O)OC2CCC3=C(C2)CC(N2CCCCC2)C3)cc(OC)c1OC` (stereo not given), for which the inhibition in vivo at 5 mg/kg with Felis catus [1] and with Felis catus [4] was 0% throughout.
With `Br.OC1CC2=C(CC=CC2)C1CCCN1CCCCC1` (stereo not given), the inhibition in vivo at 5 mg/kg is 0% in the data set on Felis catus [1] and 20% with Felis catus [4]. Besides, the Activity entry with Felis catus [2] and in the data set on Felis catus [3] was “Non-toxic” each time. Also, the Time in the data set on Felis catus [5] was determined as 1 h.
Regarding `CN1CC2=C(C[C@H](O)[C@@H](O)C2)C1` (relative stereo), the inhibition in vivo at 5 mg/kg in the data set with Felis catus [1] and in the data set with Felis catus [4] was 0% throughout. The Activity result in the data set on Felis catus [2] and in the data set on Felis catus [3] was “Non-toxic” in each case. The Time with Felis catus [5] was below 0.25 h.
Regarding `Oc1ccc2c(c1)CC(N1CCCCC1)C2` (stereo not given), the inhibition in vivo at 5 mg/kg was 0% in the data set on Felis catus [1] and above 80% in the data set on Felis catus [4]. In addition, the Activity entry in the data set with Felis catus [2] and in the data set on Felis catus [3] was “Non-toxic” in each case. In addition, in the data set with Felis catus [5], the Time was below 0.25 h.
Regarding `O[C@@H]1CC2=C(CC(N3CCCCC3)CC2)C[C@@H]1O` (relative stereo), the inhibition in vivo at 5 mg/kg in the data set with Felis catus [1] and in the data set with Felis catus [4] was 0% each time.
On to `O[C@@H]1CC2=C(CC(CN3CCCCC3)C2)C[C@@H]1O` (stereo not given in full), for which the inhibition in vivo at 5 mg/kg in the data set with Felis catus [1] and in the data set with Felis catus [4] was 0% in each case.
In the case of `CN(C)CCCC1C2=C(CC=CC2)CCC1O` (stereo not given), the inhibition in vivo at 5 mg/kg in the data set with Felis catus [1] and in the data set on Felis catus [4] was 0% in each case.
As for `CCCCNC1CC2=C(CC(O)CC2)C1` (stereo not given), the inhibition in vivo at 5 mg/kg in the data set on Felis catus [1] and with Felis catus [4] was 0% throughout.
Take `OC1CCC2=C(C1)CC(N1CCCC1)C2` (stereo not given): the inhibition in vivo at 5 mg/kg is 0% in the data set with Felis catus [1] and 20% in the data set on Felis catus [4]. Also, the Time in the data set with Felis catus [12] is below 15 min; with Felis catus [5], 0.25 h. Besides, the Activity result with Felis catus [2] and in the data set on Felis catus [3] was “Non-toxic” throughout.
Consider `CC(=O)O[C@H]1CC2=C(CC(N3CCCCC3)C2)C[C@H]1OC(C)=O` (stereo not given in full), for which the results for the inhibition in vivo at 5 mg/kg in the data set on Felis catus [1] and in the data set with Felis catus [4] were 0% and 50%, respectively. Moreover, the Activity entry in the data set with Felis catus [2] and in the data set with Felis catus [3] was “Non-toxic” in each case. Moreover, in the data set with Felis catus [5], the Time was above 2 h.
For `Cl.OC1CCC2=C(C1)CC(CCN1CCCCC1)C2` (stereo not given), the inhibition in vivo at 5 mg/kg amounted to 0% in the data set on Felis catus [1] and 20% in the data set with Felis catus [4]. The Activity entry in the data set with Felis catus [2] and in the data set with Felis catus [3] was “Non-toxic” throughout. Also, in the data set with Felis catus [5], the Time was 0.25 h.
As to `OC1CCC2=C(C1)CC(N1CCCCC1)C2` (mixture of isomers; 6), the Time in the data set with Felis catus [6] worked out at 0.25 h. For the same compound, the “inhibition (INH)” value in the data set on Felis catus [10] is recorded as 50%.
`CN1CC2=C(C[C@H](O)[C@H](O)C2)C1`: the inhibition in vivo at 5 mg/kg with Felis catus [1] and in the data set on Felis catus [4] was 0% in each case. The Activity result in the data set on Felis catus [2] and in the data set on Felis catus [3] was “Non-toxic” in each case.
As for `CC(=O)O[C@H]1CC2=C(CCC(N3CCCCC3)C2)C[C@H]1OC(C)=O` (relative stereo), the inhibition in vivo at 5 mg/kg in the data set with Felis catus [1] and in the data set with Felis catus [4] was 0% throughout.
Take `CC(=O)OC1CC=C(CCN2CCCCC2)CC1OC(C)=O` (stereo not given): the inhibition in vivo at 5 mg/kg in the data set with Felis catus [1] and in the data set with Felis catus [4] was 0% each time.
Take `CN(C)CCCC1CC[C@@]2(O)CC=CC[C@]12O` (stereo not given in full): the inhibition in vivo at 5 mg/kg in the data set with Felis catus [1] and in the data set with Felis catus [4] was 0% in each case. Further, the Activity result in the data set with Felis catus [2] and with Felis catus [3] was “Non-toxic” in each case.
Take `O[C@@H]1CC2=C(CC(N3CCCCC3)C2)C[C@H]1Oc1ccccc1` (relative stereo): the inhibition in vivo at 5 mg/kg in the data set with Felis catus [1] amounted to 0%; with Felis catus [4] it was 20%. Moreover, the Activity entry with Felis catus [2] and in the data set with Felis catus [3] was “Non-toxic” each time. Besides, the Time in the data set with Felis catus [5] is below 0.25 h.
For `O[C@@H]1CC2CC(CN3CCCCC3)CC2C[C@@H]1O` (stereo not given in full), the inhibition in vivo at 5 mg/kg in the data set on Felis catus [1] and in the data set with Felis catus [4] was 0% throughout.
Regarding `Cl.OC1CCC2=C(C1)CC(CN1CCCCC1)C2` (stereo not given), the inhibition in vivo at 5 mg/kg in the data set on Felis catus [1] and with Felis catus [4] was 0% in each case. In addition, the Activity entry with Felis catus [2] and in the data set with Felis catus [3] was “Non-toxic” in each case. Besides, the Time in the data set with Felis catus [5] was 0.25 h.
Turning to `O[C@@H]1CC2=C(CC(CN3CCCCC3)C2)C[C@H]1O` (relative stereo), the inhibition in vivo at 5 mg/kg worked out at 0% in the data set on Felis catus [1] and 20% in the data set with Felis catus [4]. For the same compound, the Activity entry in the data set with Felis catus [2] and in the data set on Felis catus [3] was “Non-toxic” in each case. The Time in the data set with Felis catus [5] was 0 h.
In the case of `CC(=O)O[C@@H]1CC2=C(CC(CN3CCCCC3)C2)C[C@H]1OC(C)=O.Cc1ccc(S(=O)(=O)O)cc1` (relative stereo), the inhibition in vivo at 5 mg/kg in the data set with Felis catus [1] turned out to be 0%; with Felis catus [4] it was 20%. The Activity result with Felis catus [2] and with Felis catus [3] was “Non-toxic” throughout. In addition, in the data set on Felis catus [5], the Time is below 0.25 h.
With `CN(C)C1CC2=C(C1)C[C@H](O)[C@H](O)C2` (stereo not given in full), the inhibition in vivo at 5 mg/kg with Felis catus [1] and in the data set with Felis catus [13] was 0% each time. Besides, the Activity result with Felis catus [2] and in the data set with Felis catus [3] was “Non-toxic” each time.
As for `O[C@H]1CC2=C(CC(N3CCCCC3)C2)C[C@@H]1O` (relative stereo), the inhibition in vivo at 5 mg/kg was 0% with Felis catus [1] and 50% in the data set with Felis catus [4]. Further, the Activity entry in the data set with Felis catus [2] and in the data set on Felis catus [3] was “Non-toxic” each time. Besides, in the data set with Felis catus [5], the Time is 0.25 h.
With `O[C@]12CC=CC[C@]1(O)CC(N1CCCCC1)C2` (relative stereo), the Time with Felis catus [12] and with Felis catus [14] was below 15 min throughout. The compound also showed an inhibition in vivo at 5 mg/kg with Felis catus [13] of 0%. Besides, the Activity entry with Felis catus [2] and in the data set with Felis catus [3] was “Non-toxic” throughout.
`CC(=O)O[C@@H]1CC2=C(CC(N3CCCCC3)C2)C[C@H]1OC(C)=O` (relative stereo): the inhibition in vivo at 5 mg/kg with Felis catus [1] and in the data set on Felis catus [4] was 0% throughout.
